Assay results taken from PubChem BioAssay (NCI).
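Values below derive from 48-hour exposures of cells grown in 96-well plates, with endpoints linearly interpolated between the two concentrations bracketing the appropriate inhibition level. GI50 = concentration required for 50% inhibition of growth. TGI: total growth inhibition.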

Key:
Experiment in all cases: DTP human tumour cell line panel, 48 h
[1] = tested on: ACHN renal
[2] = tested on: NCI-H522 lung
[3] = tested on: NCI-H460 lung
[4] = tested on: KM12 colon
[5] = tested on: HCT-15 colon
[6] = tested on: HL-60(TB) leukemia
[7] = tested on: MDA-MB-435
[8] = tested on: U251 CNS
[9] = tested on: SW-620 colon
[10] = tested on: CCRF-CEM leukemia

Row | SMILES | GI50 [1] [µM] | TGI [1] [µM] | GI50 [2] [µM] | TGI [2] [µM] | GI50 [3] [µM] | TGI [3] [µM] | GI50 [4] [µM] | TGI [4] [µM] | GI50 [5] [µM] | TGI [5] [µM] | GI50 [6] [µM] | TGI [6] [µM] | GI50 [7] [µM] | TGI [7] [µM] | GI50 [8] [µM] | TGI [8] [µM] | GI50 [9] [µM] | TGI [9] [µM] | GI50 [10] [µM] | TGI [10] [µM]
1 | CSc1ccc(C2=NN(C(C)=O)C(c3cc(C)cs3)C2)cc1 (configuration not stated) | 30.1 | > 100 | 17.9 | 74.9 | 27.3 | > 100 | 24 | > 100 | 24.6 | > 100 | 11.8 | 29.8 | 23.4 | > 100 | 32.8 | > 100 | 38.2 | > 100 | 26.7 | > 100
2 | CC1=C(C(=O)Nc2ccc3[nH]ncc3c2)C(c2ccc3ccccc3c2)CC(=O)N1 (configuration not stated) | > 25 | > 25 | 13.8 | > 25 | > 25 | > 25 | 17.8 | > 25 | > 25 | > 25 | > 25 | > 25 | > 25 | > 25 | > 25 | > 25 | 9.97 | > 25 | > 25 | > 25
3 | COC(=O)CCCCN=Cc1c(O)c(O)c(C(C)C)c2cc(C)c(-c3c(C)cc4c(C(C)C)c(O)c(O)c(C=NCCCCC(=O)OC)c4c3O)c(O)c12 | 1.15 | > 32.5 | 0.838 | 4.43 | 1.04 | 9.48 | 0.799 | > 32.5 | 1.06 | > 32.5 | 1.13 | 22.8 | 1.46 | > 32.5 | 0.58 | 4.05 | 1.27 | > 32.5 | 0.746 | 17.5
4 | O=C(c1ccco1)c1nc2ccc(C(F)(F)F)cc2[n+]([O-])c1C(F)(F)F | 54.5 | > 100 | > 100 | > 100 | 44 | > 100 | 67.7 | > 100 | > 100 | > 100 | 95.2 | > 100 | > 100 | > 100 | 52.6 | > 100 | > 100 | > 100 | > 100 | > 100
5 | COc1cnc2cc(C(=O)O)c3c([N+](=O)[O-])cccc3c2c1 | – | > 100 | – | > 100 | – | > 100 | – | > 100 | – | > 100 | – | > 100 | – | > 100 | – | > 100 | – | > 100 | – | > 100
6 | COC(=O)c1cc2c3ccccc3[nH]c2c2ncccc12 | 11.2 | > 100 | 86 | > 100 | 51.4 | > 100 | 81.1 | > 100 | 21.4 | > 100 | > 100 | > 100 | > 100 | > 100 | 30.6 | > 100 | 38.4 | > 100 | 32.4 | > 100
7 | N#Cc1ccc(C#Cc2ccccc2C#CCCCCO)cc1 | 19.1 | 33.2 | 16.1 | 31.1 | 19.7 | 49 | 17.8 | 36.2 | 15.6 | 29 | 23.7 | 45.6 | 18.9 | 35.6 | 14.5 | 27.5 | 17.4 | 35 | 14.8 | 29.1
8 | CCCCC(=O)OCC1OC(n2cnc3c(=S)nc[nH]c32)C(OC(=O)CCCC)C1OC(=O)CCCC (configuration not stated) | 2.59 | > 100 | 0.498 | 60.2 | 4.38 | > 100 | 1.48 | > 100 | 1.56 | > 100 | 3.55 | > 100 | 2.21 | > 100 | 13.4 | > 100 | 1.51 | > 100 | 3.25 | > 100
9 | CCCCC/C(C=C(C#N)C#N)=C/c1ccccc1 | 4.53 | 16.5 | 4.5 | 19.7 | 3.22 | 12.2 | 3.37 | 13.2 | 5.13 | 27.5 | 2.39 | 6.32 | 1.77 | 4.11 | 3.03 | 14.1 | 3.12 | 10.9 | 2.51 | 6.96
10 | Cc1ccc(S(=O)(=O)N(CCOc2ccc(/C(N)=N/Cl)cc2)CCOc2ccc(/C(N)=N\Cl)cc2)cc1 | > 100 | > 100 | 13.3 | 76.4 | 5.62 | 25.2 | 12.4 | 28.1 | > 100 | > 100 | 7.65 | 48.6 | 21.8 | > 100 | 3.91 | 16.8 | 26.9 | > 100 | 11.6 | > 100
11 | CN(C)CCC(=O)N1C/C(=C/c2ccccc2)C(=O)/C(=C\c2ccccc2)C1 | – | 5.5 | – | 0.977 | – | 6.47 | – | 1.73 | – | 3.91 | – | 1.81 | – | 3.85 | – | 2 | – | 1.22 | – | 0.874
12 | Cn1c(N2NC(=O)C(N=Nc3ccc(S(N)(=O)=O)cc3)C2=O)nc(-c2ccco2)c(C#N)c1=O (configuration not stated) | 15.6 | > 50 | 5.42 | 26.5 | > 50 | > 50 | > 50 | > 50 | 8.44 | 22.1 | 5.04 | 18.4 | 32.3 | > 50 | 42.3 | > 50 | 9.23 | 28.6 | 8.63 | > 50
13 | CCNCCNc1cc(-c2ccc(C(=O)OC)cc2)c(C#N)c2nc3ccccc3n12 | 1.66 | 3.3 | 1.72 | 4.52 | 1.42 | 3.31 | 2.59 | > 100 | 1.47 | 4.65 | 1.11 | 2.93 | 1.71 | 3.47 | 1.53 | 3.11 | 0.488 | 2.67 | 0.505 | 3.55
14 | Cc1ccc(-c2c3c([nH]c(=O)c2C#N)-c2cc(F)ccc2OC3)cc1 | > 100 | > 100 | 19 | 59.2 | 53.4 | > 100 | 36.1 | > 100 | 91 | > 100 | 96.6 | > 100 | 35.8 | > 100 | 46.2 | > 100 | > 100 | > 100 | 1.19 | 7.25
15 | CC1=C(CCCNS(C)(=O)=O)C2=C(C)C3(CC3)[C@@](C)(O)C(=O)C2=C1 | 2.14 | 7.58 | 2.09 | 7.7 | 0.266 | 0.812 | 3.99 | > 100 | 1.23 | > 100 | 1.98 | > 24 | 1.99 | 5.41 | 2.32 | > 100 | 55.5 | > 100 | 44.1 | > 100
16 | O=C(NCCOCCOCCNc1cccc2c1C(=O)N(C1CCCNC1=O)C2=O)c1cc2c(o1)C(=O)c1ccccc1C2=O (configuration not stated) | 2.29 | 6.5 | 2 | 4.77 | 1.85 | 3.59 | 2.91 | 10 | 2.06 | 5.5 | 2.38 | 6.78 | 1.62 | 3.05 | 1.9 | 3.9 | 2.35 | 7.52 | 4.48 | > 100
17 | CCOc1cccc(/C=N/NC(=O)c2ccccc2Nc2ccnc(C(F)(F)F)c2)c1O | 0.271 | > 67.8 | 3.47 | > 63 | 0.272 | 7.05 | 0.513 | 47.7 | 0.195 | > 100 | 0.253 | 0.621 | 1.07 | 77.4 | 0.375 | > 100 | 1.23 | > 100 | 0.136 | > 31.4
18 | O=C(Nc1ccc(N2CCNCC2)cc1)c1[nH]ncc1Nc1cc(Oc2ccccc2)ncn1 | 0.213 | 0.479 | 2.14 | 8.19 | 0.635 | 2.3 | 0.216 | 0.521 | 2.18 | 5.64 | 1.91 | 4.54 | 1.68 | 4.66 | 2.12 | 10.5 | 0.514 | 1.94 | 1.83 | 4.73
19 | CC1CCC2(C(=O)O)CCC3(C)C(=CCC4C5(C)CC(O)C(O)C(C)(CO)C5C(O)CC43C)C2C1C (configuration not stated) | – | > 100 | – | 33.9 | – | > 100 | – | > 100 | – | > 100 | – | 47.1 | – | > 100 | – | 45.5 | – | > 100 | – | 53.3
20 | COc1cc(OC)cc(-c2ccc(-c3ccc(C(=N)N)o3)o2)c1 | 2.05 | 4.22 | 2.3 | 7.4 | 2.32 | 5.17 | 2.45 | 6.56 | 3.18 | 10.4 | 1.9 | 4.24 | 1.52 | 3.12 | 2.45 | 5.91 | 1.88 | 4.06 | 2.72 | 7.72
21 | O=C(O)CCCCC(CCSCc1ccccc1)SCc1ccccc1 (configuration not stated) | 51.1 | > 100 | 34.1 | > 100 | 33.4 | > 100 | 35.2 | > 100 | 33.1 | > 100 | 46.9 | > 100 | > 73.7 | > 100 | 47.9 | > 100 | > 70 | > 100 | 37 | > 100
22 | CSc1cc(N=Nc2nc3ccccc3s2)c2ccccc2c1O | 6.57 | 13.1 | 1.82 | 13.1 | 7.83 | 17.6 | 5.35 | 28.7 | 8.31 | 20.2 | 0.906 | 25.5 | 11.1 | 23.9 | 9.03 | 19.4 | 13.3 | 34.8 | – | –
23 | N#C/C(=C1C=C/C(=N/O)C(Br)=C/1)c1ccccc1 | 1.89 | 14.7 | 1.87 | 5.23 | 2.89 | 8.8 | 0.347 | 1.42 | 2.41 | > 100 | 2.16 | 6.31 | 0.495 | 2.32 | 2.44 | 8.01 | 0.637 | 10.8 | 0.661 | 8.91
24 | Nc1ccn(C2O[C@H](CO)[C@@H](O)[C@@H]2O)c(=O)n1 (some centres not stated) | 42.9 | > 100 | 26.5 | > 100 | 23 | > 100 | – | > 100 | – | > 100 | > 100 | > 100 | – | > 100 | – | > 100 | – | > 100 | – | –
25 | Cc1nn(CN2CCN(C)CC2)c(=S)n1/N=C/c1cccc2ccccc12 | 20.1 | 38.4 | 19 | 39.8 | 20.3 | 41.6 | 19.3 | 41.4 | 16 | 33.5 | 16.7 | 37 | 18.6 | 43 | – | – | 31.4 | > 100 | 23.4 | 55.3
26 | Cc1c(C(=O)N/N=C/c2ccc(Cl)cc2)nnn1-c1ccnc2c(C(F)(F)F)cccc12 | 2.02 | 3.95 | 11.8 | 35.2 | 4.49 | 15.8 | 8.94 | 41.7 | 2.88 | 16.3 | 6.39 | 48 | 4.46 | 21.3 | – | – | 5.09 | 47.6 | 14.8 | > 100
